From ChEMBL document CHEMBL4251615, “Discovery of anilino-furo[2,3-d]pyrimidine derivatives as dual inhibitors of EGFR/HER2 tyrosine kinase and their anticancer activity” (Eur J Med Chem, 2018)

Assays:
[1] = test system: CAKI-1; assay: Growth inhibition of human Caki1 cells assessed as cell growth at 10 uM incubated for 48 hrs by sulforhodamine B assay relative to control; format: functional; settings: CAKI-1, 48 h, read-out: Activity
[2] = test system: SK-MEL-28; assay: Growth inhibition of human SK-MEL-28 cells assessed as cell growth at 10 uM incubated for 48 hrs by sulforhodamine B assay relative to control; format: functional; settings: SK-MEL-28, 48 h, read-out: Activity
[3] = test system: SNB-75; assay: Growth inhibition of human SNB75 cells assessed as cell growth at 10 uM incubated for 48 hrs by sulforhodamine B assay relative to control; format: functional; settings: SNB-75, 48 h, read-out: Activity
[4] = test system: RXF 393; assay: Growth inhibition of human RXF393 cells assessed as cell growth at 10 uM incubated for 48 hrs by sulforhodamine B assay relative to control; format: functional; settings: RXF 393, 48 h, read-out: Activity
[5] = test system: SK-MEL-5; assay: Growth inhibition of human SK-MEL-5 cells assessed as cell growth at 10 uM incubated for 48 hrs by sulforhodamine B assay relative to control; format: functional; settings: SK-MEL-5, 48 h, read-out: Activity
[6] = test system: SF-295; assay: Growth inhibition of human SF295 cells assessed as cell growth at 10 uM incubated for 48 hrs by sulforhodamine B assay relative to control; format: functional; settings: SF-295, 48 h, read-out: Activity
[7] = test system: A549; assay: Growth inhibition of human A549/ATCC cells assessed as cell growth at 10 uM incubated for 48 hrs by sulforhodamine B assay relative to control; format: functional; settings: A549, 48 h, read-out: Activity
[8] = test system: EKVX; assay: Growth inhibition of human EKVX cells assessed as cell growth at 10 uM incubated for 48 hrs by sulforhodamine B assay relative to control; format: functional; settings: read-out: Activity
[9] = test system: DU-145; assay: Growth inhibition of human DU145 cells assessed as cell growth at 10 uM incubated for 48 hrs by sulforhodamine B assay relative to control; format: functional; settings: DU-145, 48 h, read-out: Activity
[10] = test system: OVCAR-5; assay: Growth inhibition of human OVCAR5 cells assessed as cell growth at 10 uM incubated for 48 hrs by sulforhodamine B assay relative to control; format: functional; settings: OVCAR-5, 48 h, read-out: Activity
[11] = test system: MCF7; assay: Growth inhibition of human MCF7 cells assessed as cell growth at 10 uM incubated for 48 hrs by sulforhodamine B assay relative to control; format: functional; settings: MCF7, 48 h, read-out: Activity
[12] = test system: A498; assay: Growth inhibition of human A498 cells assessed as cell growth at 10 uM incubated for 48 hrs by sulforhodamine B assay relative to control; format: functional; settings: A498, 48 h, read-out: Activity
[13] = test system: K562; assay: Growth inhibition of human K562 cells assessed as cell growth at 10 uM incubated for 48 hrs by sulforhodamine B assay relative to control; format: functional; settings: K562, 48 h, read-out: Activity
[14] = test system: SF-268; assay: Growth inhibition of human SF268 cells assessed as cell growth at 10 uM incubated for 48 hrs by sulforhodamine B assay relative to control; format: functional; settings: SF-268, 48 h, read-out: Activity
[15] = test system: CCRF-CEM; assay: Growth inhibition of human CCRF-CEM cells assessed as cell growth at 10 uM incubated for 48 hrs by sulforhodamine B assay relative to control; format: functional; settings: read-out: Activity
[16] = test system: BT-549; assay: Growth inhibition of human BT549 cells assessed as cell growth at 10 uM incubated for 48 hrs by sulforhodamine B assay relative to control; format: functional; settings: BT-549, 48 h, read-out: Activity
[17] = target: Epidermal growth factor receptor (Homo sapiens, UniProt P00533); assay: Inhibition of recombinant human C-terminal His/N-terminal GST-tagged EGFR (668 to 1210 residues) expressed in baculovirus infected Sf9 cells at 10 uM using biotin-labeled poly[Glu:Tyr] (4:1) as substrate after 30 mins by Kinase-Glo plus luminescence assay relative to control
[18] = test system: 786-0; assay: Growth inhibition of human 786-0 cells assessed as cell growth at 10 uM incubated for 48 hrs by sulforhodamine B assay relative to control; format: functional; settings: 786-0, 48 h, read-out: Activity
[19] = test system: KM12; assay: Growth inhibition of human KM12 cells assessed as cell growth at 10 uM incubated for 48 hrs by sulforhodamine B assay relative to control; format: functional; settings: KM12, 48 h, read-out: Activity
[20] = test system: COLO 205; assay: Growth inhibition of human COLO205 cells assessed as cell growth at 10 uM incubated for 48 hrs by sulforhodamine B assay relative to control; format: functional; settings: COLO 205, 48 h, read-out: Activity
[21] = test system: U-251; assay: Growth inhibition of human U251 cells assessed as cell growth at 10 uM incubated for 48 hrs by sulforhodamine B assay relative to control; format: functional; settings: U-251, 48 h, read-out: Activity
[22] = test system: TK-10; assay: Growth inhibition of human TK10 cells assessed as cell growth at 10 uM incubated for 48 hrs by sulforhodamine B assay relative to control; format: functional; settings: TK-10, 48 h, read-out: Activity
[23] = test system: NCI-H226; assay: Growth inhibition of human NCI-H226 cells assessed as cell growth at 10 uM incubated for 48 hrs by sulforhodamine B assay relative to control; format: functional; settings: NCI-H226, 48 h, read-out: Activity
[24] = test system: HOP-62; assay: Growth inhibition of human HOP62 cells assessed as cell growth at 10 uM incubated for 48 hrs by sulforhodamine B assay relative to control; format: functional; settings: HOP-62, 48 h, read-out: Activity
[25] = test system: MDA-MB-231; assay: Growth inhibition of human MDA-MB-231 cells assessed as cell growth at 10 uM incubated for 48 hrs by sulforhodamine B assay relative to control; format: functional; settings: MDA-MB-231, 48 h, read-out: Activity
[26] = test system: HT-29; assay: Growth inhibition of human HT-29 cells assessed as cell growth at 10 uM incubated for 48 hrs by sulforhodamine B assay relative to control; format: functional; settings: HT-29, 48 h, read-out: Activity
[27] = test system: Hs-578T; assay: Growth inhibition of human Hs 578T cells assessed as cell growth at 10 uM incubated for 48 hrs by sulforhodamine B assay relative to control; format: functional; settings: read-out: Activity
[28] = test system: RPMI-8226; assay: Growth inhibition of human RPMI8226 cells assessed as cell growth at 10 uM incubated for 48 hrs by sulforhodamine B assay relative to control; format: functional; settings: RPMI-8226, 48 h, read-out: Activity
[29] = test system: NCI-H460; assay: Growth inhibition of human NCI-H460 cells assessed as cell growth at 10 uM incubated for 48 hrs by sulforhodamine B assay relative to control; format: functional; settings: NCI-H460, 48 h, read-out: Activity
[30] = test system: SK-OV-3; assay: Growth inhibition of human SKOV3 cells assessed as cell growth at 10 uM incubated for 48 hrs by sulforhodamine B assay relative to control; format: functional; settings: SK-OV-3, 48 h, read-out: Activity
[31] = test system: HCC 2998; assay: Growth inhibition of human HCC2998 cells assessed as cell growth at 10 uM incubated for 48 hrs by sulforhodamine B assay relative to control; format: functional; settings: HCC 2998, 48 h, read-out: Activity
[32] = test system: NCI-H23; assay: Growth inhibition of human NCI-H23 cells assessed as cell growth at 10 uM incubated for 48 hrs by sulforhodamine B assay relative to control; format: functional; settings: NCI-H23, 48 h, read-out: Activity

Epidermal growth factor receptor, sequence (P00533 whole entry, the tested form may be a part): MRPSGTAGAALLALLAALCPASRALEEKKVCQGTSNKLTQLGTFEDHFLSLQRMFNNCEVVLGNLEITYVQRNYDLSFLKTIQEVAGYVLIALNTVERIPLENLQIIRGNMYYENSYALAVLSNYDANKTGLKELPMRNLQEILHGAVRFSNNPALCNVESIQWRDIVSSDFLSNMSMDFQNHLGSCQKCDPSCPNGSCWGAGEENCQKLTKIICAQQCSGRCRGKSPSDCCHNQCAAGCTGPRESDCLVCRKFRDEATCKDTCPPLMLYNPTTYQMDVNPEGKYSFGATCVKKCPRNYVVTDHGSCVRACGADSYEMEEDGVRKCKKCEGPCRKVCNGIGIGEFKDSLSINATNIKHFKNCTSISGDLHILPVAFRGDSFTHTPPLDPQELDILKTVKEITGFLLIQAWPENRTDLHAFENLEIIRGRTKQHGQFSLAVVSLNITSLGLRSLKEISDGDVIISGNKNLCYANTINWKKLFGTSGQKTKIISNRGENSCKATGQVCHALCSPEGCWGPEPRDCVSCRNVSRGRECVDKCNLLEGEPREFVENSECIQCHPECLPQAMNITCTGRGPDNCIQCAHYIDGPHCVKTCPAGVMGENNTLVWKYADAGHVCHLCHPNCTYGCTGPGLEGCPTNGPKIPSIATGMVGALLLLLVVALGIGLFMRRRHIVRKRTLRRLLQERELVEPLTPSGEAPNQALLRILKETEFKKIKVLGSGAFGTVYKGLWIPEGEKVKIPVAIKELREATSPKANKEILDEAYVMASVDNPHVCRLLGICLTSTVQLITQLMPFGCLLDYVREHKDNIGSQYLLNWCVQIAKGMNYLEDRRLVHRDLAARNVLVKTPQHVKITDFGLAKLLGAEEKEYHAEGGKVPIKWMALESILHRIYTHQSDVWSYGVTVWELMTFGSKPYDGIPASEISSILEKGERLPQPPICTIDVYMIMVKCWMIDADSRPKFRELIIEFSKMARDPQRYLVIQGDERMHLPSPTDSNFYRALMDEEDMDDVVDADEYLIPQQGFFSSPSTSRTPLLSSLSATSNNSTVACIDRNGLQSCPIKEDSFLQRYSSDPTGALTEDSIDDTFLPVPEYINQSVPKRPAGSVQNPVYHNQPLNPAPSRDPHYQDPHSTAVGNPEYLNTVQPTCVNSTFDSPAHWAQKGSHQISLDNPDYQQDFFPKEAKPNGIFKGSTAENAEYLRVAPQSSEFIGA

SMILES	growth at 10 µM [1] [%]	growth at 10 µM [2] [%]	growth at 10 µM [3] [%]	growth at 10 µM [4] [%]	growth at 10 µM [5] [%]	growth at 10 µM [6] [%]	growth at 10 µM [7] [%]	growth at 10 µM [8] [%]	growth at 10 µM [9] [%]	growth at 10 µM [10] [%]	growth at 10 µM [11] [%]	growth at 10 µM [12] [%]	growth at 10 µM [13] [%]	growth at 10 µM [14] [%]	growth at 10 µM [15] [%]	growth at 10 µM [16] [%]	inhibition [17] [%]	growth at 10 µM [18] [%]	growth at 10 µM [19] [%]	growth at 10 µM [20] [%]	also measured
Cc1oc2ncnc(Nc3ccccc3)c2c1C(=O)NCCO	90.8	99	90.7	104	97.5	100	98.1	97.6	105	93.2	98.6	78.2	29.4	99.8	97.4	90.1	8	98.7	95.2	100	growth at 10 µM [21]: 102%; growth at 10 µM [22]: 122%; growth at 10 µM [23]: 106%; growth at 10 µM [24]: 99%; growth at 10 µM [25]: 75%; growth at 10 µM [26]: 106%; growth at 10 µM [27]: 90.5%; growth at 10 µM [28]: 94.8%; growth at 10 µM [29]: 98.6%; growth at 10 µM [30]: 100%; growth at 10 µM [31]: 103%; growth at 10 µM [32]: 92%
CCOC(=O)c1c(C)oc2ncnc(Nc3cccc(F)c3)c12	92	98.2	107	97.6	99	94.8	93	101	99	102	95.4	75.9	101	102	98.8	94.2	2	95.7	100	104	growth at 10 µM [21]: 106%; growth at 10 µM [22]: 95.9%; growth at 10 µM [23]: 101%; growth at 10 µM [24]: 101%; growth at 10 µM [25]: 91.7%; growth at 10 µM [26]: 89.8%; growth at 10 µM [27]: 99%; growth at 10 µM [28]: 107%; growth at 10 µM [29]: 101%; growth at 10 µM [30]: 101%; growth at 10 µM [31]: 103%; growth at 10 µM [32]: 97.8%
Cc1oc2ncnc(Nc3cccc(F)c3)c2c1C(=O)O	93.8	103	85.8	115	99.6	98.7	101	101	107	97.6	97.6	90.5	98.5	96.3	110	93.9	49	92	102	109	growth at 10 µM [21]: 106%; growth at 10 µM [22]: 105%; growth at 10 µM [23]: 109%; growth at 10 µM [24]: 98.4%; growth at 10 µM [25]: 85%; growth at 10 µM [26]: 110%; growth at 10 µM [27]: 99.9%; growth at 10 µM [28]: 107%; growth at 10 µM [29]: 104%; growth at 10 µM [30]: 102%; growth at 10 µM [31]: 102%; growth at 10 µM [32]: 97.6%
CCOC(=O)c1c(C)oc2ncnc(Nc3ccc(OCc4ccc(Cl)cc4)cc3)c12	94	101	116	85.9	95.8	97.9	86.5	102	106	100	102	91.7	83.8	109	110	96.1	6	98	101	111	growth at 10 µM [21]: 107%; growth at 10 µM [22]: 87.4%; growth at 10 µM [23]: 98.8%; growth at 10 µM [24]: 97.7%; growth at 10 µM [25]: 101%; growth at 10 µM [26]: 94.4%; growth at 10 µM [27]: 111%; growth at 10 µM [28]: 111%; growth at 10 µM [29]: 107%; growth at 10 µM [30]: 88%; growth at 10 µM [31]: 108%; growth at 10 µM [32]: 95.4%
